One assay deals with non-infected Sf9 cells. Kind of assay: Calcium imaging (fura-2) in non-infected Sf9 cells. It counts as cell-based, Spodoptera frugiperda. To be noted: ionophore at 5 μM, FIG. 2 top graph. Here is the method: In a first series of experiments, the possibility of measuring the calcium response in Sf9 cells using the calcium imaging technique was tested.
The protocol used for the assays is as follows:
(§1) Sf9 cells are cultured on 24-well plates containing 12 mm coverslips. Before the experiments, the culture medium is removed and washed with a buffer containing 10 mM of NaCl, 60 mM of KCl, 25 mM of MgCl2, 1.8 mM of CaCl2, 4 mM of D-glucose, 110 mM of sucrose and 10 mM of 2-(N-morpholino)ethanesulfonic acid; the pH is adjusted to 6.2 at ambient temperature with Trizma base.
The cells are incubated for 1 hour at ambient temperature in the dark with a solution of MBS containing fura 2-AM (4 μm) (molecular probe). […]
The fura-2 fluorescence measurements are carried out using a T.I.L.L Photonics GmbH, (Planegg) Polychrome II multipath wavelength illumination system for extinction. […] The acquisition and the calculation of the fluorescence images are carried out using the T.I.L.L-Vision program. […] The fluorescence ratios (f340/f380) are calculated for the intracellular Ca^2+ variations. […]
The Ca^2+ signals are the result of the mean determined on all the cells in the field of the camera (gray signal) and of the mean for the responding cells (black signal) (n=4).

Assay [1] concerns octopamine receptor naturally present in Sf9 cells. Kind of assay: Octopamine control, calcium imaging (fura-2) in Sf9 cells. To be noted: 50 μM. It counts as cell-based, Spodoptera frugiperda. As for the experimental part:
as §1
The cells are incubated for 1 hour at ambient temperature in the dark with a solution of MBS containing fura 2-AM (4 μm) (molecular probe). The cells are then washed with an excess of MBS without fura 2-AM and mounted in a Coverwell chamber (Polylabo, France) (diameter: 9 mm; thickness: 2.5 mm; cross section: 22.5).
The chamber is placed under the microscope and the cells are perfused under gravity with 0.85 ml/min (3.78 cm/min) at ambient temperature (23° C.).
The fura-2 fluorescence measurements are carried out using a T.I.L.L Photonics GmbH, (Planegg) Polychrome II multipath wavelength illumination system for extinction. The microscope (Olympus) is equipped with a long-distance objective (×20). The spatio-temporal Ca^2+ distributions are studied using a PCO interline camera. […] The acquisition and the calculation of the fluorescence images are carried out using the T.I.L.L-Vision program. […] The fluorescence ratios (f340/f380) are calculated for the intracellular Ca^2+ variations. […]

Assay [2] deals with T1, HA-Gα16 (Gα16 protein with N-terminal HA epitope), expressed in Sf9 cells (human, UniProt P30679 1-374).
T1 construct: whole, on cells; Intracellular protein with a submembrane cytoplasmic location in infected Sf9 cells; also called Ga16; G16
T1 sequence (looked up): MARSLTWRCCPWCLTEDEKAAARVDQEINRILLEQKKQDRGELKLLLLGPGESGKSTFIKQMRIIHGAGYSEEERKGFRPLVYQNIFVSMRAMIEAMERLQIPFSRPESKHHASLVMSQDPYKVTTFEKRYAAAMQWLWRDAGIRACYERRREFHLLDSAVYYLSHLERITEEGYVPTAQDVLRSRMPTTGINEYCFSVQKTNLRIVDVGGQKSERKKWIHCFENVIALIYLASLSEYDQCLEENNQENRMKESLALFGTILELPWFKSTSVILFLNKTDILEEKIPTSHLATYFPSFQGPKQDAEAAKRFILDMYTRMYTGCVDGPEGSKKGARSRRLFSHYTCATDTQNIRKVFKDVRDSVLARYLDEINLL
In words: colocalization by immunofluorescence, confocal microscopy, Sf9 cells infected with double-recombinant baculovirus. Here is the method:
The cellular location of the ORs and of the G proteins were studied by immunofluorescence 36 hours after infection. The ORs are detected by means of an anti-FLAG primary antibody and an FITC-labeled secondary antibody. The G proteins are detected by means of a rhodamine-labeled anti-HA antibody.
The labeled cells are observed by confocal microscopy. In the cells infected with the AcMNPV209 and AcMNPV210 baculoviruses, labeling is observed to be located at the cell surface, with a punctate distribution typical of membrane receptors. In the cells infected with the AcSLP10G₁₆ and AcSLP10Golf baculoviruses, labeling is observed to have a submembrane cytoplasmic location. In the cells infected with the double-recombinant baculoviruses AcG₁₆-209, AcGolf-210, AcG₁₆-209 and AcGolf-210, colocalization of the receptor with each G protein co-expressed is observed. No major difference is observed between OR17-209 and OR17-210 as regards preferential binding with Golf or G₁₆. It therefore appears that these two receptors are capable of coupling to the two G proteins in insect cells.

As for `CNc1c(Br)cc2oc(C[C@H]3O[C@@]4(CC[C@H]3C)O[C@H]([C@H](C)C(=O)c3ccc[nH]3)[C@H](C)C[C@H]4C)nc2c1C(=O)O` [4-bromo A23187, 4-bromo-A23187], in the assay with non-infected Sf9 cells, the “intracellular Ca2+ variation (fluorescence ratio f340/f380)” value was “induces a large increase in intracellular calcium”.

On to `NCC(O)c1ccc(O)cc1` (stereo not shown) [octopamine], for which the intracellular calcium result in assay [1] (all baculovirus-infected Sf9 cells (OR17-209 or OR17-210 alone, with G16 or with Golf), 36 hours after infection, FIG. 3) is on record as “induces an increase in intracellular calcium”. In assay [1] (non-infected Sf9 cells, FIG. 2 bottom graph, B), the “intracellular Ca2+ variation (fluorescence ratio f340/f380)” value is “induces an increase in intracellular calcium”.

B1: human olfactory receptor OR17-209 with N-terminal FLAG epitope, expressed in Sf9 cells from baculovirus AcMNPV209 (receptor, UniProt P47890 1-313, looked up, not shown: small tags and cut ends)
chain: MEGKNLTSISECFLLGFSEQLEEQKPLFGSFLFMYLVTVAGNLLIILVIITDTQLHTPMYFFLANLSLADACFVSTTVPKMLANIQIQSQAISYSGCLLQLYFFMLFVMLEAFLLAVMAYDCYVAICHPLHYILIMSPGLCIFLVSASWIMNALHSLLHTLLMNSLSFCANHEIPHFFCDINPLLSLSCTDPFTNELVIFITGGLTGLICVLCLIISYTNVFSTILKIPSAQGKRKAFSTCSSHLSVVSLFFGTSFCVDFSSPSTHSAQKDTVASVMYTVVTPMLNPFIYSLRNQEIKSSLRKLIWVRKIHSP
notes: whole, on cells; The construct encodes EGT signal peptide, FLAG and receptor; also called OR-209
Turning to B1, the binding result in assay [2] was “binds”.

Source of the values: patent US20060009618A1, “Expression receptors with 7 transmembrane domains in baculovirus-insect cell system” (priority 2002, published 2006).
